Laboratory results as given in US20170216315A1 (priority 2016, published 2017).
Marks after values point to notes of the source that are not given here.

Columns and labels:
Assay type in all cases: in vivo, mice
[1] = tested on: LXR-α, SREBP-1c, ACC, FAS, ME; assay: Expressions of lipid synthesis-related genes in liver (real-time PCR); conditions: EK100 1, 5, 10 mg/kg/day vs EtOH group, p<0.05, FIG. 4
Experimental: C-4 was put into a 0.8 ml RNAlater containing an RNA stabilizer (Qiagen company, United States), and then the commercial kit (E.Z.N.A™ Tissue RNA kit, purchased from Omega Bio-Tek company, United States) was used to extract the mRNA therein. After that, the mRNA sample obtained therefrom was reverse transcribed to provide cDNA, and then specific primers (as shown in Table 2) were used to conduct real-time polymerase chain reaction (real-time PCR) of the cDNA to observe the expression of each gene in the mouse liver, wherein the operation steps of the real-time polymerase chain reaction were as follows: (i) 2 μl of cDNA (50 ng/μl), 5 μl of SYBR Green (Molecular Probes company, United States, Applied Biosystems/Fast SYBR® Green Master Mix), 2 μl of RNase-free water, 1 μl of forward primer, and 1 μl of reverse primer were well mixed and then centrifuged; (ii) the above sample was put into a real-time polymerase chain reaction system (Applied Biosystems/StepOne Real time PCR system) to detect the expression of each gene, wherein the expression of GAPDH was used as the […] control.
It has been known that LXR-α, SREBP-1c, ACC, FAS, ME, etc. are genes related to lipid synthesis, thus, the expressions of the above genes in mouse liver of each group were compared by the analysis method of [Preparation Examples] D-2.

[2] = tested on: acetaldehyde dehydrogenase (ALDH); assay: Activity of ALDH in liver homogenate; conditions: EK100 1, 5, 10 mg/kg/day vs control group; p<0.05; FIG. 14B
Experimental: D-3 were analyzed. The operation steps were as follows: (i) 100 μl of liver homogenate and 1 ml of sodium pyrophosphate buffer (pH 8.8, 1 mM NAD^+, 0.2 mM 4-methylpyrazole, 1 mM MgCl2, 2 μM rotenone, 1% Triton X-100) were well mixed; the mixture was left standing in the dark at room temperature for 20 minutes; and then the absorbance (A) of the mixture was measured at 340 nm wavelength; (ii) 100 μl of liver homogenate and 1 ml of sodium pyrophosphate buffer (pH 8.8, 1 mM NAD^+, 0.2 mM 4-methylpyrazole, 1 mM MgCl2, 2 μM rotenone, 1% Triton X-100, 5 mM acetaldehyde) were well mixed; the mixture was left standing in the dark at room temperature for 20 minutes, and then the absorbance (B) of the mixture was measured at 340 nm wavelength; (iii) absorbance (A) and absorbance (B) were substituted into formula 3 below to calculate the activity of ALDH (μmole/min/mg protein).

[3] = Feed intake, relative weight of organs and of fat pads; conditions: for Relative weight of abdominal fat pad / Relative weight of epididymal fat pad / Relative weight of heart / Relative weight of kidney / Relative weight of liver / Relative weight of spleen: alcoholic liquid diet, week 4
Experimental: C-1. The feed intakes of mice were recorded every day (4 mice from each group were randomly picked for recording, and an average of the 4 mice was taken). The changes in the mice body weight were recorded at the last day of every week (i.e., an average of 8 mice from each group), over a four-week period.
C-4. After “C-3” was completed, the mice were sacrificed. The weights of the mice hearts, livers, kidneys, spleens, and abdominal and epididymal fat pads were measured and recorded; the mice livers were washed with sterilized saline, and then the liver appearances were recorded by a camera. The collected organs and feces were stored at −80° C. for the following analysis (recording, sample collection and storage were conducted for all of the 8 mice from each group).
The average values of daily feed intakes of mice of each group recorded in [Preparation Examples] Besides, the weights of mice organ and fat of each group obtained from [Preparation Examples] C-4 were averaged, respectively, and then the average weights (g) were divided by the average body weights of mice in week 4 from the corresponding group to obtain the relative weights of organs and the relative weights of fat.

[4] = tested on: alcohol dehydrogenase (ADH); assay: Activity of ADH in liver homogenate; conditions: EK100 1, 5, 10 mg/kg/day vs control or EtOH group; p<0.05; FIG. 14A
Experimental: D-3 were analyzed. The operation steps were as follows: (i) 50 μl of liver homogenate, 50 μl of phosphate-buffered saline (PBS), and 1 ml of 0.1 M glycine-NaOH buffer (pH 10.8, 10 mM NAD^+) were well mixed; the mixture was left standing in the dark at room temperature for 4 minutes; and then the absorbance (A) of the mixture was measured at 340 nm wavelength; (ii) 50 μl of liver homogenate, 50 μl of phosphate-buffered saline (PBS), and 1 ml of 0.1 M glycine-NaOH buffer (pH 10.8, 10 mM NAD^+, 0.016 M ethanol) were well mixed; the mixture was left standing in the dark at room temperature for 4 minutes; and then the absorbance (B) of the mixture was measured at 340 nm wavelength; (iii) absorbance (A) and absorbance (B) were substituted into formula 2 below to calculate the activity of ADH (μmole/min/mg protein).

For CC(C)[C@@H](C)/C=C/[C@@H](C)[C@H]1CC[C@H]2C3=CCC4C[C@@H](O)CC[C@]4(C)C3=CC[C@]12C (stereo partly shown) [EK100], the “Expressions of lipid synthesis-related genes in liver compared to EtOH” value [1] was “significantly decreased”, the “Activity of ALDH in liver compared to control” value [2] was “significantly increased” and the “Relative weight of epididymal fat pad compared to EtOH” value ([3]; EK100 1, 5, 10 mg/kg/day vs EtOH group, p<0.05) was “significantly lower”. For the same compound, the “Relative weight of abdominal fat pad” value ([3]; EK100_1X: 1 mg/kg/day gavage) was 0.21 ± 0.03^c g/100 g of mice body weight, the “Relative weight of epididymal fat pad” value ([3]; EK100_1X: 1 mg/kg/day gavage) was 1.30 ± 0.11^c g/100 g of mice body weight and the “Relative weight of heart” value ([3]; EK100_1X: 1 mg/kg/day gavage) was 0.53 ± 0.03^bc g/100 g of mice body weight. For the same compound, the “Relative weight of kidney” value ([3]; EK100_1X: 1 mg/kg/day gavage) was 1.33 ± 0.04^a g/100 g of mice body weight, the “Relative weight of liver” value ([3]; EK100_1X: 1 mg/kg/day gavage) was 4.50 ± 0.14^a g/100 g of mice body weight and the “Relative weight of spleen” value ([3]; EK100_1X: 1 mg/kg/day gavage) was 0.53 ± 0.03^a g/100 g of mice body weight. The “Relative weight of abdominal fat pad” value ([3]; EK100_5X: 5 mg/kg/day gavage) was 0.41 ± 0.06^b g/100 g of mice body weight, the “Relative weight of epididymal fat pad” value ([3]; EK100_5X: 5 mg/kg/day gavage) was 1.42 ± 0.14^c g/100 g of mice body weight and the “Relative weight of heart” value ([3]; EK100_5X: 5 mg/kg/day gavage) was 0.57 ± 0.04^ab g/100 g of mice body weight. The “Relative weight of kidney” value ([3]; EK100_5X: 5 mg/kg/day gavage) was 1.28 ± 0.05^a g/100 g of mice body weight, the “Relative weight of liver” value ([3]; EK100_5X: 5 mg/kg/day gavage) was 4.33 ± 0.20^a g/100 g of mice body weight and the “Relative weight of spleen” value ([3]; EK100_5X: 5 mg/kg/day gavage) was 0.55 ± 0.04^a g/100 g of mice body weight. The “Relative weight of abdominal fat pad” value ([3]; EK100_10X: 10 mg/kg/day gavage) was 0.40 ± 0.04^b g/100 g of mice body weight, the “Relative weight of epididymal fat pad” value ([3]; EK100_10X: 10 mg/kg/day gavage) was 1.62 ± 0.07^c g/100 g of mice body weight and the “Relative weight of heart” value ([3]; EK100_10X: 10 mg/kg/day gavage) was 0.51 ± 0.01^bc g/100 g of mice body weight. For the same compound, the “Relative weight of kidney” value ([3]; EK100_10X: 10 mg/kg/day gavage) was 1.14 ± 0.02^b g/100 g of mice body weight, the “Relative weight of liver” value ([3]; EK100_10X: 10 mg/kg/day gavage) was 4.48 ± 0.10^a g/100 g of mice body weight and the “Relative weight of spleen” value ([3]; EK100_10X: 10 mg/kg/day gavage) was 0.55 ± 0.02^a g/100 g of mice body weight. The “Activity of ADH in liver compared to control or EtOH” value [4] was “significantly increased”.
